The nature of data set [1]: Particle diameter and polydispersity index (PdI) of mRNA-encapsulating lipid nanoparticles. The settings on record: EPO mRNA-encapsulating lipid nanoparticles, compound:DSPC:cholesterol:DMG-PEG2000=50:10:38.5:1.5; diluted with PBS. The class given is physicochemical. As for the experimental part:
(§1) The compounds shown in Table 9, 1,2-distearoyl-sn-glycero-3-phosphocholine (product name: COATSOME® MC-8080; NOF corporation) (hereinafter, DSPC), cholesterol (product name: Cholesterol HP; Nippon Seika Co., Ltd.), and 1,2-dimyristoyl-rac-glycero-3-(methylpolyoxyethylene 2000) (hereinafter, DMG-PEG2000) (product name: SUNBRIGHT® GM-020; NOF corporation) were dissolved in ethanol at a molar ratio (mol %) of compounds shown in Table 9:1,2-distearoyl-sn-glycero-3-phosphocholine:cholesterol:DMG-PEG2000=50:10:38.5:1.5 such that the total lipid concentration was 12.5 mmol/L, thereby obtaining an oil phase.
(§2) EPO mRNA (product name: CleanCap EPO mRNA (5moU); TriLink) was diluted with 50 mmol/L citrate buffer having a pH 4.0 such that the weight ratio of total lipid concentration to mRNA concentration is about 20:1, thereby obtaining a water phase. Then, the water phase and the oil phase were mixed together using NanoAssemblr (Precision NanoSystems) such that the volume ratio of water phase:oil phase was 3:1, and the mixed solution was 2-fold diluted with phosphate buffered physiological saline (PBS) or water, thereby obtaining a dispersion liquid of mRNA lipid nanoparticles. The dispersion liquid was dialyzed with 20 mM Tris buffer solution containing 8% sucrose using a dialysis cassette (Slide-A-Lyzer G2, MWCO: 10 kD, Thermo Fisher Scientific) to remove ethanol, thereby obtaining EPO mRNA-encapsulating lipid nanoparticles.
The particle diameter and the polydispersity index (PdI) of the mRNA-encapsulating lipid nanoparticles were obtained by measuring a dispersion liquid of lipid nanoparticles diluted with phosphate buffered physiological saline (PBS) using a particle size analyzer NanoSAQLA (Otsuka Electronics Co., Ltd.).

Data set [2] in a line: Encapsulation rate of mRNA in lipid nanoparticles. The class given is physicochemical. The following applies: EPO mRNA-encapsulating lipid nanoparticles, compound:DSPC:cholesterol:DMG-PEG2000=50:10:38.5:1.5. As for the experimental part: as §1, §2
<Evaluation of Encapsulation Rate of mRNA> (Quantification of Total mRNA Concentration)
EPO mRNA was diluted with MilliQ water to prepare a diluted sample in 2-fold dilution series from 100 μg/mL to 3.1 μg/mL, and a standard solution for calibration was prepared. 50 μL of the standard solution for calibration or the mRNA lipid nanoparticles was mixed with 450 μL of methanol to prepare a measurement solution.
The absorbance of each measurement solution at 260 nm and 330 nm was measured using a UV plate reader (Multiskan Go, Thermo Fisher Scientific), the absorbance at 330 nm was subtracted from the absorbance at 260 nm, and the result was used as the absorbance of each measurement solution. The total water phase nucleic acid concentration was calculated from the calibration curve using the absorbance of each sample measurement solution.
(Quantification of mRNA Concentration in Outer Water Phase)
The concentration of the outer water phase nucleic acid was quantified by a standard addition method using a QuanT-iT RiboGreen RNA Assay Kit (Thermo Fisher Scientific). First, a 20×TE buffer included in the above kit was diluted with water, thereby obtaining a 1×TE buffer. TE represents Tris/EDTA (ethylenediaminetetraacetic acid). EPO mRNA was diluted with a TE buffer such that the final concentration was 0 to 400 ng/mL to prepare a nucleic acid diluted series. 10 μL of mRNA lipid nanoparticles diluted 5-fold with TE buffer and 90 μL of a nucleic acid dilution series were mixed in a 96-well plate, 100 μL of a Ribogreen reagent diluted 200-fold with TE buffer was added to each well, and then fluorescence (excitation wavelength: 485 nm, fluorescence wavelength: 535 nm) was measured using a fluorescence plate reader (Infinite 200 Pro M nano+, TECAN). From the obtained results, the outer water phase nucleic acid concentration of each measurement solution was calculated according to the standard addition method.
(Calculation of Encapsulation Rate)
By using the quantification results of the total mRNA concentration and the mRNA concentration in the outer water phase that were obtained through the above steps, the mRNA encapsulation rate of the mRNA lipid nanoparticles was calculated according to the following Equation.

Data set [3] relates to ICR mice. Description: EPO expression level in mice after intravenous EPO mRNA lipid nanoparticles (human EPO ELISA of plasma). The class given is in vivo. The settings on record: mRNA dosage 0.1 mg/kg, plasma 6 hours after administration, Comparative Example set to 1. How it is done:
as §1, §2
(§3) The dispersion liquid of mRNA lipid nanoparticles prepared in above <Preparation of EPO mRNA-encapsulating lipid nanoparticles> was intravenously administered to ICR mice at a mRNA dosage of 0.1 mg/kg. 6 hours after the administration, blood was collected from the caudal vena cava, thereby obtaining plasma. The human EPO […] was quantified by using the obtained blood plasma and Erythropoietin (EPO) Human Elisa Kit (Abcam.plc). The quantitative value is described as a relative amount of EPO protein in a case where Comparative Example is set to 1.
(In general: ELISA stands for enzyme-linked immunosorbent assay.)

Data set [4] relates to ICR mice. Nature of the data set: EPO expression level in mice, dose dependency (human EPO ELISA of plasma). The class given is in vivo. The following applies: intravenous, plasma 6 hours after administration. As for the experimental part: as §1, §2
as §3, with “0.1, 0.5, and 1” for “0.1”, “where the amount of EPO protein at the time of 0.1 mg/kg administration in” for “where”

As for `CCCCCCCC(=O)OCCN(CCOC(=O)OC(CCCCCC)CCCC(=O)OCC(CCCC)CCCCCC)CCN(CC)CC` (stereo not drawn) [Comparative Example, 2-butyloctyl 3-ethyl-12-hexyl-6-(2-(octanoyloxy)ethyl)-10-oxo-9,11-dioxa-3,6-diazahexadecan-16-oate, reference compound], in data set [1], the “Particle diameter (nm)” value stood at 161 nm. Besides, in data set [1], the PdI came out at 0.07. For the same compound, the “Nucleic acid encapsulation rate” value in data set [2] is recorded as 50%. In data set [3], the “Relative amount of EPO protein (with respect to Comparative Example 1)” value is recorded as 1.00. Besides, the “Relative amount of EPO protein (with respect to Comparative Example 1 at 0.1 mg/kg)” value amounted to 1.00 in data set [4] (mRNA dosage 0.1 mg/kg), 0.25 in data set [4] (mRNA dosage 0.5 mg/kg) and 1.10 in data set [4] (mRNA dosage 1.0 mg/kg).
Take `CCCCCCCOC(=O)CCCC(CCCCCC)OC(=O)OCCN(CCOC(=O)C(CCCCCCC)CCCCCCC)CCN(CC)CC` (stereo not drawn) [Compound 3, heptyl 3-ethyl-6-(2-((2-heptylnonanoyl)oxy)ethyl)-12-hexyl-10-oxo-9,11-dioxa-3,6-diazahexadecan-16-oate]: in data set [1], the “Particle diameter (nm)” value worked out at 105 nm. In data set [1], the PdI is listed as 0.06. Also, the “Nucleic acid encapsulation rate” value in data set [2] came out at 84%. In data set [3], the “Relative amount of EPO protein (with respect to Comparative Example 1)” value was found to be 3.16. The entries for the “Relative amount of EPO protein (with respect to Comparative Example 1 at 0.1 mg/kg)” value in data set [4] (mRNA dosage 0.1 mg/kg), in data set [4] (mRNA dosage 0.5 mg/kg) and in data set [4] (mRNA dosage 1.0 mg/kg) were 1.91, 17.26 and 27.22, respectively.
Turning to `CCCCCCCCC(CCCCCCCC)C(=O)OCCN(CCCN(CC)CC)CCOC(=O)OC(CCCCCC)CCCCC(=O)OCCCCCCC` (stereo not drawn) [Compound 23, heptyl 3-ethyl-13-hexyl-7-(2-((2-octyldecanoyl)oxy)ethyl)-11-oxo-10,12-dioxa-3,7-diazaoctadecan-1 8-oate], the “Particle diameter (nm)” value in data set [1] is on record as 85 nm. Besides, in data set [1], the PdI is on record as 0.11. Moreover, in data set [2], the “Nucleic acid encapsulation rate” value was 95%. In data set [3], the “Relative amount of EPO protein (with respect to Comparative Example 1)” value is recorded as 4.71. The “Relative amount of EPO protein (with respect to Comparative Example 1 at 0.1 mg/kg)” value came to 4.97 in data set [4] (mRNA dosage 0.1 mg/kg), 25.74 in data set [4] (mRNA dosage 0.5 mg/kg) and 43.74 in data set [4] (mRNA dosage 1.0 mg/kg).
Turning to `CCCCCCCCC(CCCCCC)C(=O)OCCN(CCCN(CC)CC)CCOC(=O)OC(CCCCCC)CCCCC(=O)OCCCCCCC` (stereo not drawn) [Compound 24, heptyl 3-ethyl-13-hexyl-7-(2-((2-hexyldecanoyl)oxy)ethyl)-11-oxo-10,12-dioxa-3,7-diazaoctadecan-18-oate], in data set [1], the “Particle diameter (nm)” value is recorded as 98 nm. The compound further came in with a PdI in data set [1] of 0.13. Further, in data set [2], the “Nucleic acid encapsulation rate” value was 94%. Moreover, the “Relative amount of EPO protein (with respect to Comparative Example 1)” value in data set [3] was 6.54. Moreover, the “Relative amount of EPO protein (with respect to Comparative Example 1 at 0.1 mg/kg)” value is given as 4.65 in data set [4] (mRNA dosage 0.1 mg/kg), 26.81 in data set [4] (mRNA dosage 0.5 mg/kg) and 45.73 in data set [4] (mRNA dosage 1.0 mg/kg).
On to `CCCCCCCOC(=O)CCCCC(CCCCCC)OC(=O)OCCN(CCCN(CC)CC)CCOC(=O)CC(CCCCCCC)CCCCCCC` (stereo not drawn) [Compound 25, heptyl 3-ethyl-7-(2-((3-heptyldecanoyl)oxy)ethyl)-13-hexyl-11-oxo-10,12-dioxa-3,7-diazaoctadecan-18-oate], for which, in data set [1], the “Particle diameter (nm)” value turned out to be 102 nm and the PdI was determined as 0.16. In addition, in data set [2], the “Nucleic acid encapsulation rate” value is given as 94%. In addition, the “Relative amount of EPO protein (with respect to Comparative Example 1)” value in data set [3] is 4.77.
On to “heptyl 3-ethyl-12-hexyl-6-(2-((2-hexyloctanoyl)oxy)ethyl)-10-oxo-9,11-dioxa-3,6-diazahexadecan-1 6-oate [Compound 5]”, for which, in data set [1], the “Particle diameter (nm)” value is 118 nm and the PdI was 0.07. The “Nucleic acid encapsulation rate” value in data set [2] was determined as 79%. In addition, the “Relative amount of EPO protein (with respect to Comparative Example 1)” value in data set [3] was found to be 2.28.

For the origin of these results see patent US20260001834A1, “COMPOUND OR SALT THEREOF, LIPID COMPOSITION, PHARMACEUTICAL COMPOSITION, AND DELIVERY CARRIER” (FUJIFILM Corporation, priority 2023, published 2026).
